Among the data in BindingDB's records for patent US10246444 (Sabila Biosciences, 2019) are Kd values, retold here.

The target in this experiment is Epidermal growth factor receptor [T790M,L858R] (Homo sapiens, UniProt P00533, L858R/T790M). The experiment in a line: Kinase assay.
Epidermal growth factor receptor [T790M,L858R], sequence (P00533 25-1210 T790M/L858R limits assumed): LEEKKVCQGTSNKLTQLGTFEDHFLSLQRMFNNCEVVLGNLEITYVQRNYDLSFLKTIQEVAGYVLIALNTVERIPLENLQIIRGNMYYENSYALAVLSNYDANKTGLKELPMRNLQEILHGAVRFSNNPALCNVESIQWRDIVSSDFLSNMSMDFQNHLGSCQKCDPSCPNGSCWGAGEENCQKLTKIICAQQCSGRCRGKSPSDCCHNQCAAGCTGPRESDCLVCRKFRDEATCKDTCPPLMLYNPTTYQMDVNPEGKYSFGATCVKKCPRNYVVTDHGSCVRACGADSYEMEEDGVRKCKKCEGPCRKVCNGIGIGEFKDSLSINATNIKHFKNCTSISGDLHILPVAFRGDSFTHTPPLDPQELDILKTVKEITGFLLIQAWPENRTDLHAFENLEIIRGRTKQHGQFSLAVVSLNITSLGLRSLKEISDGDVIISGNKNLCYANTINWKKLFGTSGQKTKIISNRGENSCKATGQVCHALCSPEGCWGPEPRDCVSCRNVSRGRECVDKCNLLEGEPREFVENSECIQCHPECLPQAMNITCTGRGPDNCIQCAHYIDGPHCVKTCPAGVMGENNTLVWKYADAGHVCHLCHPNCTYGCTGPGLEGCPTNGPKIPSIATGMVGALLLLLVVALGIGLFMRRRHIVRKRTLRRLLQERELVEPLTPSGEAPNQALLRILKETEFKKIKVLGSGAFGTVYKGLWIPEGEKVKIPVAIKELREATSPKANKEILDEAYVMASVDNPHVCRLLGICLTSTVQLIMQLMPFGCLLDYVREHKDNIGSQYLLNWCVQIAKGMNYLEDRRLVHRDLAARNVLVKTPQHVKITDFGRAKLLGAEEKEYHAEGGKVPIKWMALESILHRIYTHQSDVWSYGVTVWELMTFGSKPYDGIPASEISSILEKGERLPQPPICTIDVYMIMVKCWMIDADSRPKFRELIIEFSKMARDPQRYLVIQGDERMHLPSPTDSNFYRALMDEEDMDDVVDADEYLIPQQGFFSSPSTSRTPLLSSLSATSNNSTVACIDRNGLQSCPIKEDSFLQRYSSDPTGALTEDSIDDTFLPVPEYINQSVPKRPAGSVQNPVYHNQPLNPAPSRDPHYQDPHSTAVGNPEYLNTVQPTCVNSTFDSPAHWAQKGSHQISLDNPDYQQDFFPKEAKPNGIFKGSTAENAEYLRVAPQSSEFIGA

Method: The assay is performed by combining three components: DNA-tagged kinase; immobilized ligand; and a test compound. The ability of the test compound to compete with the immobilized ligand is measured via quantitative PCR of the DNA tag.For most assays, kinase-tagged T7 phage strains were prepared in an E. coli host derived from the BL21 strain. E. coli were grown to log-phase and infected with T7 phage and incubated with shaking at 32° C. until lysis. The lysates were centrifuged and filtered to remove cell debris. The remaining kinases were produced in HEK-293 cells and subsequently tagged with DNA for qPCR detection. […] The liganded beads were blocked with excess biotin and washed with blocking buffer (SeaBlock (Pierce), 1% BSA, 0.05% Tween 20, 1 mM DTT) to remove unbound ligand and to reduce nonspecific binding. […] All reactions were performed in polystyrene 96-well plates in a final volume of 0.135 ml. […] The kinase concentration in the eluates was measured by qPCR.

As to `CCOc1cc2ncc(C#N)c(Nc3ccc(OCc4cccc(F)c4)c(Cl)c3)c2cc1NC(=O)CC1CCSS1` (stereo unspecified) [US10246444, Example 40], the Kd – broadly, the constant that tells how readily two partners part at equilibrium – is above 10 µM.
